Source: PMC9675044 (Journal of medicinal chemistry, 2022)

Experiments:
[1] = test system: more than 200 full-length kinases in Hela cell lysate; test: Kinobead pulldown assay in cellular lysate; assay type: binding, human; conditions: dose–response 30 μM to 1 nM
HeLa cells = test: Quantitative phosphoproteomic analysis; assay type: cell-based, human; conditions: 30 min, 100 μM (LIMKi3, TH470) or 1 mM (TH257) as printed; for Significantly regulated phosphosites: p<0.01
468 kinases = test: KINOMEscan scanMAX kinase selectivity panel; assay type: binding, human

With CC(C)C(=O)Nc1ncc(-c2cc(C(F)F)nn2-c2c(Cl)cccc2Cl)s1 [Compound 1, reference compound] the “Hits identified in kinobead assay” value [1] was “No other hits except LIMK1 and LIMK2 were identified”, the Downregulated phosphosites (HeLa cells) was 173 sites and the Upregulated phosphosites (HeLa cells) was 189 sites. It also gave a Significantly regulated phosphosites (HeLa cells) of 362 sites.
For O=C(c1ccc(S(=O)(=O)Nc2ccccc2)cc1)N(Cc1ccccc1)Cc1cn(Cc2ccccc2)nn1 [Compound 33, N-benzyl-N-[(1-benzyl-1H-1,2,3-triazol-4-yl)methyl]-4-(phenylsulfamoyl)benzamide], the “Additional off-targets identified besides LIMK1/2” value (468 kinases; selectivity profiling) was “four”.
O=C(NCc1ccccc1)c1ccc(S(=O)(=O)NCc2ccccc2)cc1 [Compound 26, N-benzyl-4-(benzylsulfamoyl)benzamide] was tested, and the “Interaction with other kinases in KINOMEscan panel” value (468 kinases; screened at 1 μM, 468 kinases) was “no interacting kinase” and the “Hits identified in kinobead assay” value [1] was “No other hits except LIMK1 and LIMK2 were identified”.
In the case of CC(C)C(=O)Nc1ncc(C(=O)NCCN(Cc2ccccc2)C(=O)c2ccc(S(=O)(=O)Nc3ccccc3)cc2)s1 [Compound 48, N-benzyl-N-(2-{[2-(2-methylpropanamido)-1,3-thiazol-5-yl]formamido}ethyl)-4-(phenylsulfamoyl)benzamide], the “Hits identified in kinobead assay” value [1] is reported as “No other hits except LIMK1 and LIMK2 were identified”, the Downregulated phosphosites (HeLa cells) is reported as 193 sites and the Upregulated phosphosites (HeLa cells) is reported as 146 sites. The Significantly regulated phosphosites (HeLa cells) was 339 sites.
